Patent US6645938B2, “Protection against ischemia and reperfusion injury” (ZymoGenetics, Inc., priority 2000, dated 2003)

Legend:
[1] = tested on: mouse vas deferens; assay: Mouse vas deferens (m.v.d.) contractility assay; details: 6000 nM glibenclamide with 1000 nM compound-D
Experimental: Glibenclamide, a KATP channel blocker, blocked the inhibition of contraction of mouse vas deferens induced by compound-D SEQ ID NO:1. With reference to FIG. 8, the effect of administration of 1000 nM compound-D SEQ ID NO:1 alone (open bar) versus 1000 nM compound-D SEQ ID NO:1 with 6000 nM glibenclamide (hatched bar) on contractility of mouse vas deferens (m.v.d.) (n=6) is shown. Glibenclamide restored m.v.d. contractions which compound-D SEQ ID NO:1 had suppressed. […] (n=2).

[2] = tested on: isolated perfused rat heart; assay: Isolated perfused rat heart (Langendorff), 20 min global ischemia and 120 min reperfusion after 24 h pretreatment; assay type: in vivo
Experimental: Compound-D SEQ ID NO:1, at a dose of 2 mg/kg and solubilized as described above, was administered by tail vein injection into rats weighing between about 350-400 g (number of animals (n)=6). Control rats (n=6) were injected in the same manner with an equal volume of 0.9% NaCl. After 24 h, the hearts from both treated and control animals were excised and perfused in a modified Langendorff perfusion apparatus at 37° C. using oxygenated Krebs-Henseleit buffer as the perfusate, as known to one skilled in the art. Coronary perfusion pressure was maintained at […] by regulating coronary flow. All hearts were paced at […] (300 beats per minute, bpm) except during ischemia. A saline-filled balloon was inserted in the left ventricle to measure developed pressure (DP) and end-diastolic pressure (EDP) in mm Hg. After 15 min equilibration, both groups were subjected to 20 min zero-flow global ischemia, and then were reperfused for 120 min.
Left ventricles were isolated and divided into three segments along their short axis, stained with triphenyltetrazolium chloride, and stored in formalin. Infarct size was measured on digitized images and expressed as a percentage of myocardium. Data were expressed as mean plus or minus standard error of the mean (±SEM) and were analyzed using a paired Student's t-Test. Confidence limits were established at 95%. […]

Compound | effect on inhibition of contraction induced by compound-D [1] | effect of naltrexone on the cardioprotective effects of compound-D ([2]; FIG. 7, naltrexone 3 mg/kg combined with compound-D 2.0 mg/kg, 24 h prior to ischemia) | infarct size ([2]; FIG. 7 naltrexone study, pretreated 24 h prior to ischemia, compound-D 2.0 mg/kg, naltrexone 3 mg/kg, control about 27%)
COc1ccc(Cl)cc1C(=O)NCCc1ccc(S(=O)(=O)NC(=O)NC2CCCCC2)cc1 [Glibenclamide] | blocked |  | 
O=C1CC[C@@]2(O)[C@H]3Cc4ccc(O)c5c4[C@@]2(CCN3CC2CC2)[C@H]1O5 [naltrexone] |  | did not block | about 14.5%
